Data on one molecule can be found in US11572590B2, “Methods for evaluating tumor cell spheroids using 3D microfluidic cell culture device” (Dana-Farber Cancer Institute, Inc., priority 2017, dated 2023).

Read-outs that look alike come from different tables or passages of the source.

Test [1] deals with T1, off-target kinases (Homo sapiens, UniProt O00444).
T1 sequence (O00444 1-970): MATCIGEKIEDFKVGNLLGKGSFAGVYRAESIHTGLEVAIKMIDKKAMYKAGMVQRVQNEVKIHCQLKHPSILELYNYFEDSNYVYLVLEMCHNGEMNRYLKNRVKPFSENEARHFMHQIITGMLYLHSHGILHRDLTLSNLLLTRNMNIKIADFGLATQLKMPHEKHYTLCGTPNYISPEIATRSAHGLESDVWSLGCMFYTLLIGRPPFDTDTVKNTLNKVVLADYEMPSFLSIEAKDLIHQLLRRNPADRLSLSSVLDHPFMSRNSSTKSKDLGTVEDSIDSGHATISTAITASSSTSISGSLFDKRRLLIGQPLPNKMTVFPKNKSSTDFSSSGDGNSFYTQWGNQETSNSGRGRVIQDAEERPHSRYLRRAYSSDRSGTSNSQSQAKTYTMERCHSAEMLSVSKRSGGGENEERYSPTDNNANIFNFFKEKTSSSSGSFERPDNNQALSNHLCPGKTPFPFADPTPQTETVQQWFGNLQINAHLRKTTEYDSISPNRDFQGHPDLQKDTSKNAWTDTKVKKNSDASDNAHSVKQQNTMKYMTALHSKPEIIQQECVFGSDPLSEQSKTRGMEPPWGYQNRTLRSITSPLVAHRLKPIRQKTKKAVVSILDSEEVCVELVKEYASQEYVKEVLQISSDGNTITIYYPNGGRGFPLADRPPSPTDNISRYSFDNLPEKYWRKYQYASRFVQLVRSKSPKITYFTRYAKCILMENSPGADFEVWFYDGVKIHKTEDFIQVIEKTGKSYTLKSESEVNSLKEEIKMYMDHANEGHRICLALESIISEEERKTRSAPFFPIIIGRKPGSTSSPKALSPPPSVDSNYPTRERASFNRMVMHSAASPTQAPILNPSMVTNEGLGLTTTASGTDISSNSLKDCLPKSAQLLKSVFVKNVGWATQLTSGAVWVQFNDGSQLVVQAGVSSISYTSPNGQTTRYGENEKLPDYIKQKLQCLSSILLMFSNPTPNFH
The test is described as follows: SelectScreen Kinase Profiling, single point inhibition and IC50 for off-target kinases. Type of test: biochemical. The settings on record: PLK4, LanthaScreen Binding. Background: In TR-FRET formats the signal depends on donor and acceptor labels being close together.

The target of test [2] is T2, off-target kinases (Homo sapiens, UniProt P29322).
T2 sequence (P29322 28-1005): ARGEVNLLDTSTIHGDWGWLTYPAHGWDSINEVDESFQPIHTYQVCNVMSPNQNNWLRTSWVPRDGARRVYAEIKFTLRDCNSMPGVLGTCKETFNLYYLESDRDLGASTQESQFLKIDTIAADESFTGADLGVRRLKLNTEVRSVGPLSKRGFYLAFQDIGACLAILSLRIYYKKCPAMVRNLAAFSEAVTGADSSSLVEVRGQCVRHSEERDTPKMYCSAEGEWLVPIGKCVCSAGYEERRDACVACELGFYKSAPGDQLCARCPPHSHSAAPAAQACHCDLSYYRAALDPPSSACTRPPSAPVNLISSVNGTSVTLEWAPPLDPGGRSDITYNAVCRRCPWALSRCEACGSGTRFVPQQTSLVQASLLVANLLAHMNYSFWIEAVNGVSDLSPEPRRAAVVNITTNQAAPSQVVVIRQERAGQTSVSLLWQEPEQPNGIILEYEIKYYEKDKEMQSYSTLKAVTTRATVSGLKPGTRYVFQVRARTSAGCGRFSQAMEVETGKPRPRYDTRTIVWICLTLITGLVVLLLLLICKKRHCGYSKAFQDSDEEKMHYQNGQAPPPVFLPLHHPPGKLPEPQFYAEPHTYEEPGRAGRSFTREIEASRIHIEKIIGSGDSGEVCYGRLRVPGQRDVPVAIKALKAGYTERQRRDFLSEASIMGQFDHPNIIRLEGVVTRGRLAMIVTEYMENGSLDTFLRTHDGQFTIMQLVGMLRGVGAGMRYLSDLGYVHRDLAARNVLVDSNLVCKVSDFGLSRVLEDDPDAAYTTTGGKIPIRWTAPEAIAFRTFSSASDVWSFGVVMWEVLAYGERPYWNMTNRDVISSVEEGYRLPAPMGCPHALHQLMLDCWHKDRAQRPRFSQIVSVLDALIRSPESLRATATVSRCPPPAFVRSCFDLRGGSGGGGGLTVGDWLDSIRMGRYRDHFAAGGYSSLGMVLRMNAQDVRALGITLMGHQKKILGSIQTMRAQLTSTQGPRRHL
The test is described as above. Type of test: biochemical. The conditions noted are these: EPHA8, ZLYTE, ATP Km app.

As a reminder, the inhibition is how much of the control response was suppressed. Consider `N#Cc1cc(-c2ncnc(Nc3ccc(N4CCN(C5COC5)CC4)cc3)n2)ccc1OC1CCOCC1` [Compound 1, 5-(4-((4-(4-(oxetan-3-yl)piperazin-1-yl)phenyl)amino)-1,3,5-triazin-2-yl)-2-((tetrahydro-2H-pyran-4-yl)oxy)benzonitrile], for which the inhibition on off-target kinases [1] (read-out: % Inhibition 1) came to 96%; at off-target kinases [1] (read-out: % Inhibition 2), 95%; at off-target kinases [1] (read-out: % Inhibition Avg) it was 96%; on off-target kinases [2] (read-out: % Inhibition 1), 11%; at off-target kinases [2] (read-out: % Inhibition 2), 7%; on off-target kinases [2] (read-out: % Inhibition Avg), 9%.
